Test [1] has as its target T1, Gal4 DNA binding domain fused to the LBD of LXRα in HEK293 cells (Homo sapiens (Human), UniProt Q13133). Briefly: LXR luciferase transcriptional reporter gene assay, agonist mode, LXRα. The test is classed as cell-based. As to conditions: for EC50: read-out: Cell LXRα EC50. On the technique in general: A reporter such as luciferase makes a cellular process visible.
In test [2] the target is T2, Gal4 DNA binding domain fused to the LBD of LXRβ in HEK293 cells (Homo sapiens (Human), UniProt P55055). The test can be described thus: cell-based.
Test [3] addresses T2, Gal4 DNA binding domain fused to the LBD of LXRβ in HEK293 cells. Briefly: cell-based. The test is classed as cell-based.
Test [4] has as its target T1, Gal4 DNA binding domain fused to the LBD of LXRα in HEK293 cells. Briefly: LXR luciferase transcriptional reporter gene assay, antagonist mode (200 nM T0901317), LXRα. The test is classed as cell-based. As to conditions: for IC50: read-out: Cell LXRα IC50.
Test [5] addresses T3, LXR α LBD protein (Homo sapiens (Human), UniProt Q13133). Briefly: Human LXRα coactivator recruitment FRET assay, agonist mode. The test is classed as biochemical. In a few lines: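 Time-resolved FRET (delay 100 µs, window 200 µs) after 2 h rt incubation of compound with 10 nM (2×) GST-tagged LXRα or LXRβ LBD plus 200 nM fluorescein-SRC2-3 and 20 nM Tb-anti-GST (4×). Percent control vs concentration fit to four-parameter model; EC50 at inflection.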

The target in test [6] is T4, LXR β LBD protein (Homo sapiens (Human), UniProt P55055). Briefly: biochemical. The test is classed as binding.
Target sequence in this assay (P55055 222-460 limits assumed): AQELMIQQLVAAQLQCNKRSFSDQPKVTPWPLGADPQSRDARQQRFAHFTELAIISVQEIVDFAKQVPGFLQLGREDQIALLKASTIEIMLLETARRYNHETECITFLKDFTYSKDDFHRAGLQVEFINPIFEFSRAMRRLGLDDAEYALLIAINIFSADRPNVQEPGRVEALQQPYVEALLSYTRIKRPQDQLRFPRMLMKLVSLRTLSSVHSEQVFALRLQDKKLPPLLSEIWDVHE
For test [7], the target named is T4, LXR β LBD protein. The test can be described thus: biochemical. The test is classed as biochemical. The settings on record: for EC50: read-out: FRET LXRβ EC50.
Target sequence in this assay (P55055 222-460): as the sequence (P55055 222-460 limits assumed) above
The target of test [8] is T3, LXR α LBD protein. Briefly: LXR α radioligand binding assay (SPA, competition with [3H]TO901317). As to conditions: read-out: LXRα Binding Ki.
Setting [9] is: antagonist mode, 200 nM T0901317, HEK293 reporter gene assay.
The mark [10] stands for this setting: Biological Test Example 3, agonist mode.

Where two headings read alike, the source gives them in different places.

For orientation: EC50 means the concentration that produces a half-maximal response. Broadly, the IC50 is the point on the concentration scale where inhibition reaches its midpoint. Usually Ki stands for the equilibrium dissociation constant of an inhibitor or competing ligand from its target.

T2 sequence (P55055 222-460 limits assumed): as above
T3 sequence (Q13133 209-447): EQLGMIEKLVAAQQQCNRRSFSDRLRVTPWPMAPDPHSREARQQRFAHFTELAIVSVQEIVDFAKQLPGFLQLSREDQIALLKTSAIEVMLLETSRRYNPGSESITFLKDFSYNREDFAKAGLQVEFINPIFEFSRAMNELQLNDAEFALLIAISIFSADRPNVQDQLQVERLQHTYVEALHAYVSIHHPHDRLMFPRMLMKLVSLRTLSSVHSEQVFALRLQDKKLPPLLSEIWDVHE
T1 sequence (Q13133 209-447): as above

Turning to `C[C@]1(c2ccccc2)CN(c2cccc(S(C)(=O)=O)c2)CCN1Cc1ccc(C(F)(F)F)c(Cl)c1` (single isomer, unassigned) [46-34], the results for the “Cell LXRα efficacy” value in test [1] and in test [4] were 2082 (24) % and 7451 (87) %, respectively. Besides, the EC50 in test [1] (agonist mode) was found to be 2080 nM; in test [2], 587 nM; in test [5] (agonist mode), 862 nM; in test [7] it was 257 nM. The “Cell LXRβ efficacy” value is given as 587 (10) % in test [2] (agonist mode) and 688 (70) % in test [3] (setting [9]). In addition, the values for the IC50 in test [3] and in test [4] (setting [9]) were 688 nM and 7450 nM, respectively. Besides, the “FRET LXRα efficacy” value in test [5] (agonist mode) is 40%. Further, in test [6] (read-out: LXRβ Binding Ki), the Ki was found to be 32 nM.

`CS(=O)(=O)c1cccc(N2CCN(Cc3ccc(C(F)(F)F)c(F)c3)[C@@H](c3ccccc3)C2)c1` (single isomer, unassigned) [46-26]: the entries for the “Cell LXRα efficacy” value in test [1] and in test [4] were 1479 (62) % and 7585 (36) %, respectively. The EC50 worked out at 1480 nM in test [1] (agonist mode), 676 nM in test [2], 2860 nM in test [5] (agonist mode) and 411 nM in test [7]. Further, the “Cell LXRβ efficacy” value was 676 (62) % in test [2] (agonist mode) and 6798 (54) % in test [3] (setting [9]). Moreover, the IC50 in test [3] was determined as 6800 nM; in test [4] (setting [9]), 7580 nM. For the same compound, the “FRET LXRα efficacy” value in test [5] (agonist mode) worked out at 59%. In addition, the Ki in test [6] (read-out: LXRβ Binding Ki) turned out to be 58 nM. Further, the “FRET LXRβ efficacy” value in test [7] (agonist mode) is on record as 411 (73) %.

As to `C[C@]1(c2ccccc2)CN(c2cccc(S(C)(=O)=O)c2)CCN1Cc1ccc(C(F)(F)F)cc1` (single isomer, unassigned) [46-21], the “Cell LXRα efficacy” value in test [1] was 2026 (20) %. For the same compound, the EC50 was 2030 nM in test [1] (agonist mode), 541 nM in test [2], 3000 nM in test [5] (agonist mode) and > 50000 nM in test [7]. Moreover, the results for the “Cell LXRβ efficacy” value in test [2] (agonist mode) and in test [3] (setting [9]) were 541 (12) % and 537 (75) %, respectively. Further, the IC50 in test [3] is 537 nM; in test [4] (setting [9]) it was > 10000 nM. Further, in test [5] (agonist mode), the “FRET LXRα efficacy” value is given as 24%. Besides, the affinity in test [6] corresponds to a Ki of 85 nM.

In the case of `CS(=O)(=O)c1cc(N2CCN(C[C@H]3CC[C@@H](C(F)(F)F)CC3)[C@@H](c3ccc(F)cc3)C2)ccc1F` [48-48, (S)-4-(4-fluoro-3-(methylsulfonyl)phenyl)-2-(4-fluorophenyl)-1-(((1s,4R)-4-(trifluoromethyl)cyclohexyl)methyl)piperazine], the Ki in test [8] turned out to be 156 nM; in test [6] (Biological Test Example 1, read-out: LXRβ Binding Ki) it was 23 nM. In test [1], the “Cell LXRα efficacy” value was 460 (53) %. Besides, the EC50 in test [1] is 460 nM; in test [2] (Biological Test Example 2, agonist mode, read-out: Cell LXRβ EC50), 112 nM; in test [5] (setting [10]), 1320 nM; in test [7] (setting [10]) it was 142 nM. Moreover, the “Cell LXRβ efficacy” value in test [2] (Biological Test Example 2, agonist mode) was 31%; in test [3] (setting [9]), 52%. The IC50 in test [3] (antagonist mode, 200 nM T0901317, HEK293 reporter gene assay, read-out: Cell LXRβ IC50) is 2700 nM; in test [4], > 10000 nM. Also, the “FRET LXRα efficacy” value in test [5] (setting [10]) is 42%. Also, the “FRET LXRβ efficacy” value in test [7] (setting [10]) is on record as 40%.

Turning to `CS(=O)(=O)c1cccc(N2CCN(Cc3ccc(C(F)(F)F)cc3)[C@@H](c3ccc(F)cc3)C2)c1` [46-24, (S)-2-(4-fluorophenyl)-4-(3-(methylsulfonyl)phenyl)-1-(4-(trifluoromethyl)benzyl)piperazine], the “Cell LXRα efficacy” value in test [1] is given as 2711 (31) %; in test [4], 3139 (51) %. Further, the EC50 was 2710 nM in test [1] (agonist mode), 636 nM in test [2], 2700 nM in test [5] (agonist mode) and 347 nM in test [7]. Also, the “Cell LXRβ efficacy” value in test [2] (agonist mode) was 636 (27) %; in test [3] (setting [9]), 5823 (95) %. In addition, the IC50 in test [3] worked out at 5820 nM; in test [4] (setting [9]), 3140 nM. In addition, in test [5] (agonist mode), the “FRET LXRα efficacy” value is 39%. Moreover, the Ki in test [6] (read-out: LXRβ Binding Ki) is 359 nM. Besides, the “FRET LXRβ efficacy” value in test [7] (agonist mode) is reported as 347 (45) %.

(Values after patent US10144715B2, “Piperazine derivatives as liver X receptor modulators” (priority 2014, dated 2018).)
